Source: ChEMBL document CHEMBL4507329, “Data for DCP probe BTZO-1” (2021)

Experiments:
[1] = target: T1, Macrophage migration inhibitory factor (Homo sapiens) (UniProt P14174); test: ARE-Luc Reporter Assay (Activation of ARE (antioxidant response element)-mediated cytoprotective gene expression)
T1 sequence (whole entry): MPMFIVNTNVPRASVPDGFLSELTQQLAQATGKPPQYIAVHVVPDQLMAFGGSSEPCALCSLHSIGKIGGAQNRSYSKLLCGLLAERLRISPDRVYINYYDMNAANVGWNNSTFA

[2] = system: Tyrosine-protein kinase ABL1 (Homo sapiens), P00519 [M351T]; details: Compound concentration 1000.0 nM
[3] = system: Tyrosine-protein kinase ABL1 (Homo sapiens), P00519 [Q252H]; details: Compound concentration 1000.0 nM
[4] = target: Tyrosine-protein kinase ABL2 (Homo sapiens) (UniProt P42684); details: Compound concentration 1000.0 nM
[5] = system: ALK tyrosine kinase receptor (Homo sapiens), Q9UM73 [C1156Y]; details: Compound concentration 1000.0 nM
[6] = target: Mitogen-activated protein kinase kinase kinase 5 (Homo sapiens) (UniProt Q99683); details: Compound concentration 1000.0 nM
[7] = target: Mitogen-activated protein kinase kinase kinase 6 (Homo sapiens) (UniProt O95382); details: Compound concentration 1000.0 nM
Chain of Mitogen-activated protein kinase kinase kinase 6 (Homo sapiens) (O95382 whole entry): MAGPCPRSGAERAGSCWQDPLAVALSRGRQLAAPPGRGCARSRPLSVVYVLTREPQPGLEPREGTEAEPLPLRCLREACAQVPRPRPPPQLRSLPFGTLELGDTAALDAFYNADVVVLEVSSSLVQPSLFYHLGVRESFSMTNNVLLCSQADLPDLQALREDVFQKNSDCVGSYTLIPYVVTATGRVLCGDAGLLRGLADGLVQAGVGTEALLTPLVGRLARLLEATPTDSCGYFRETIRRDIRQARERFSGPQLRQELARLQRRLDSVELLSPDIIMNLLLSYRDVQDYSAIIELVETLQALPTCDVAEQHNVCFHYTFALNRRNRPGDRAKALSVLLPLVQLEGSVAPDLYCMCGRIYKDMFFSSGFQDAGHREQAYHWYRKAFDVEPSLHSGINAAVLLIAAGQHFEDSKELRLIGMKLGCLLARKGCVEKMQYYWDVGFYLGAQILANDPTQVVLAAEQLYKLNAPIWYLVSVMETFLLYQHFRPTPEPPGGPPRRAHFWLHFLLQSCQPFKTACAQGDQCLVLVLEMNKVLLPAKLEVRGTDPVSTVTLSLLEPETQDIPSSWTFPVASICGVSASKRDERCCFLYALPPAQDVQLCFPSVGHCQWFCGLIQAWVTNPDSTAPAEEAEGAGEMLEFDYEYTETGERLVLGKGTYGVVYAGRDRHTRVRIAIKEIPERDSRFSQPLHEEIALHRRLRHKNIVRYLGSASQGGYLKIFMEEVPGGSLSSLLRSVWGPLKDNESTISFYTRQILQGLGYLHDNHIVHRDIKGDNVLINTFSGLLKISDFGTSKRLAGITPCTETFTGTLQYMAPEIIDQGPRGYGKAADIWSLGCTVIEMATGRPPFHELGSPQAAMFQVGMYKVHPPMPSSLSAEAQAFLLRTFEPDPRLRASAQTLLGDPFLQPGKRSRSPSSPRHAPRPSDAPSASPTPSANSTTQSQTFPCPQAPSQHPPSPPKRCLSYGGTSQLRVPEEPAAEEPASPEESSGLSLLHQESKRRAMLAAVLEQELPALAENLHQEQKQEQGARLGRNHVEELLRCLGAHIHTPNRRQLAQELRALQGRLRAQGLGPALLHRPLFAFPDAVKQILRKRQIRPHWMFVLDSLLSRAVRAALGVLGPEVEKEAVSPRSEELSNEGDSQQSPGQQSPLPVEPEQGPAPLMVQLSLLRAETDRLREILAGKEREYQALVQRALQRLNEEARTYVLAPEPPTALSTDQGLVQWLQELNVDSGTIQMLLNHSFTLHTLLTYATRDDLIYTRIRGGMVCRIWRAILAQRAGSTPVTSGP

[8] = target: Cyclin-dependent kinase-like 1 (Homo sapiens) (UniProt Q00532); details: Compound concentration 1000.0 nM
[9] = target: Cyclin-dependent kinase-like 5 (Homo sapiens) (UniProt O76039); details: Compound concentration 1000.0 nM
[10] = target: Casein kinase I isoform alpha (Homo sapiens) (UniProt P48729); details: Compound concentration 1000.0 nM
[11] = target: Epidermal growth factor receptor (Homo sapiens) (UniProt P00533); details: Compound concentration 1000.0 nM
[12] = target: Tyrosine-protein kinase Fer (Homo sapiens) (UniProt P16591); details: Compound concentration 1000.0 nM
[13] = target: Tyrosine-protein kinase Fgr (Homo sapiens) (UniProt P09769); details: Compound concentration 1000.0 nM
[14] = system: Receptor-type tyrosine-protein kinase FLT3 (Homo sapiens), P36888 [D835H]; details: Compound concentration 1000.0 nM
[15] = target: Vascular endothelial growth factor receptor 3 (Homo sapiens) (UniProt P35916); details: Compound concentration 1000.0 nM
[16] = target: Interleukin-1 receptor-associated kinase 1 (Homo sapiens) (UniProt P51617); details: Compound concentration 1000.0 nM
[17] = target: Mast/stem cell growth factor receptor Kit (Homo sapiens) (UniProt P10721); details: Compound concentration 1000.0 nM
[18] = system: Leucine-rich repeat serine/threonine-protein kinase 2 (Homo sapiens), Q5S007 [G2019S]; details: Compound concentration 1000.0 nM
[19] = target: Mitogen-activated protein kinase kinase kinase 13 (Homo sapiens) (UniProt O43283); details: Compound concentration 1000.0 nM
[20] = target: Mitogen-activated protein kinase kinase kinase 4 (Homo sapiens) (UniProt Q9Y6R4); details: Compound concentration 1000.0 nM
[21] = target: MAP kinase-activated protein kinase 5 (Homo sapiens) (UniProt Q8IW41); details: Compound concentration 1000.0 nM
[22] = target: MAP kinase-interacting serine/threonine-protein kinase 2 (Homo sapiens) (UniProt Q9HBH9); details: Compound concentration 1000.0 nM
[23] = target: Macrophage-stimulating protein receptor (Homo sapiens) (UniProt Q04912); details: Compound concentration 1000.0 nM
[24] = target: Muscle, skeletal receptor tyrosine-protein kinase (Homo sapiens) (UniProt O15146); details: Compound concentration 1000.0 nM
Chain of Muscle, skeletal receptor tyrosine-protein kinase (Homo sapiens) (O15146 whole entry): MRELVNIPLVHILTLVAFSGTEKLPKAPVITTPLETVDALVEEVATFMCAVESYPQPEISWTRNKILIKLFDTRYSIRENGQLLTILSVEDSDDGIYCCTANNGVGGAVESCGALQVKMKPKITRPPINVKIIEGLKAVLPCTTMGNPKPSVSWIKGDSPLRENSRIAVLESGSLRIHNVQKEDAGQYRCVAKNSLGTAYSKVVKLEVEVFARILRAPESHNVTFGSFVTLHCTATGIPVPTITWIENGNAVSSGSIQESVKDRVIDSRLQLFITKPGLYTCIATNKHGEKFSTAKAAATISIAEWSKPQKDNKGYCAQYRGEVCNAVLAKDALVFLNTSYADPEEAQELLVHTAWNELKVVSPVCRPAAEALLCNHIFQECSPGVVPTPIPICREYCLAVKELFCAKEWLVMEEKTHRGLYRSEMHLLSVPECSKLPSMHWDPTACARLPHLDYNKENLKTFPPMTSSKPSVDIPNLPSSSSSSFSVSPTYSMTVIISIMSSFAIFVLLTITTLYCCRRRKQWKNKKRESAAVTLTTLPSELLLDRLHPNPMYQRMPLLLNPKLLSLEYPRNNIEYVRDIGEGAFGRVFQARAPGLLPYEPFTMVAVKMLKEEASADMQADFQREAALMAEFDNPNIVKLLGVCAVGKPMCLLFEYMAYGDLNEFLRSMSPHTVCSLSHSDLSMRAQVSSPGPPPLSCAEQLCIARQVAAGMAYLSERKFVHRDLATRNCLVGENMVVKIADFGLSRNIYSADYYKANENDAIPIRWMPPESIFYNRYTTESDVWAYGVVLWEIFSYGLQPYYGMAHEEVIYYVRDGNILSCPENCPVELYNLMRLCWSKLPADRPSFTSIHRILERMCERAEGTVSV

[25] = target: Serine/threonine-protein kinase Nek3 (Homo sapiens) (UniProt P51956); details: Compound concentration 1000.0 nM
[26] = target: Mitogen-activated protein kinase 14 (Homo sapiens) (UniProt Q16539); details: Compound concentration 1000.0 nM
[27] = target: Serine/threonine-protein kinase PAK 4 (Homo sapiens) (UniProt O96013); details: Compound concentration 1000.0 nM
[28] = target: Serine/threonine-protein kinase PAK 6 (Homo sapiens) (UniProt Q9NQU5); details: Compound concentration 1000.0 nM
[29] = target: Cyclin-dependent kinase 2 homolog (Plasmodium falciparum (isolate 3D7)) (UniProt P61075); details: Compound concentration 1000.0 nM
[30] = system: Phosphatidylinositol 4,5-bisphosphate 3-kinase catalytic subunit alpha isoform (Homo sapiens), P42336 [E542K]; details: Compound concentration 1000.0 nM
[31] = target: Serine/threonine-protein kinase pim-2 (Homo sapiens) (UniProt Q9P1W9); details: Compound concentration 1000.0 nM
[32] = target: Serine/threonine-protein kinase pim-3 (Homo sapiens) (UniProt Q86V86); details: Compound concentration 1000.0 nM
[33] = system: Proto-oncogene tyrosine-protein kinase receptor Ret (Homo sapiens), P07949 [V804M]; details: Compound concentration 1000.0 nM
[34] = target: Rho-associated protein kinase 1 (Homo sapiens) (UniProt Q13464); details: Compound concentration 1000.0 nM
[35] = target: Ribosomal protein S6 kinase alpha-5 (Homo sapiens) (UniProt O75582); details: Compound concentration 1000.0 nM
Chain of Ribosomal protein S6 kinase alpha-5 (Homo sapiens) (O75582 whole entry, looked up): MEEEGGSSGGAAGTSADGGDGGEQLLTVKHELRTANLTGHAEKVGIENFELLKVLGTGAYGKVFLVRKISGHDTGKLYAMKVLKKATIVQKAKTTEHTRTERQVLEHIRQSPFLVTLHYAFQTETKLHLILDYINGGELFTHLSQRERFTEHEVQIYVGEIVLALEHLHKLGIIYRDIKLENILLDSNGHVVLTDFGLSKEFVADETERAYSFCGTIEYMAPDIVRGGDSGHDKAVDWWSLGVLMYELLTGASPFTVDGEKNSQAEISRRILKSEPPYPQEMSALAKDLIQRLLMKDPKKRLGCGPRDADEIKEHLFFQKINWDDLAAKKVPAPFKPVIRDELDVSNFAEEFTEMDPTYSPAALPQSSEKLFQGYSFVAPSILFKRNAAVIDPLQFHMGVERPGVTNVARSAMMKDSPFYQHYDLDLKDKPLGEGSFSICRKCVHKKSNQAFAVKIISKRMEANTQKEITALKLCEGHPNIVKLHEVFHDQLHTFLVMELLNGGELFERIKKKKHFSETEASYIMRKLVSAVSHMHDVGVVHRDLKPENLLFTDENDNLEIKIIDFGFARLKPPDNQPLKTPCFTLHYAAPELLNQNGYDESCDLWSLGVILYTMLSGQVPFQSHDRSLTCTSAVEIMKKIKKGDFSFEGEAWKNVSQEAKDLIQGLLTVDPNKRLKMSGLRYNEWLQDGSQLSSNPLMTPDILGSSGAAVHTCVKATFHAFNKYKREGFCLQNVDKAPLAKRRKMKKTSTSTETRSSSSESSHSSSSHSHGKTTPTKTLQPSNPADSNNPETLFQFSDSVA

[36] = target: Serine/threonine-protein kinase SBK1 (Homo sapiens) (UniProt Q52WX2); details: Compound concentration 1000.0 nM
[37] = target: Serine/threonine-protein kinase 36 (Homo sapiens) (UniProt Q9NRP7); details: Compound concentration 1000.0 nM
Chain of Serine/threonine-protein kinase 36 (Homo sapiens) (Q9NRP7 whole entry): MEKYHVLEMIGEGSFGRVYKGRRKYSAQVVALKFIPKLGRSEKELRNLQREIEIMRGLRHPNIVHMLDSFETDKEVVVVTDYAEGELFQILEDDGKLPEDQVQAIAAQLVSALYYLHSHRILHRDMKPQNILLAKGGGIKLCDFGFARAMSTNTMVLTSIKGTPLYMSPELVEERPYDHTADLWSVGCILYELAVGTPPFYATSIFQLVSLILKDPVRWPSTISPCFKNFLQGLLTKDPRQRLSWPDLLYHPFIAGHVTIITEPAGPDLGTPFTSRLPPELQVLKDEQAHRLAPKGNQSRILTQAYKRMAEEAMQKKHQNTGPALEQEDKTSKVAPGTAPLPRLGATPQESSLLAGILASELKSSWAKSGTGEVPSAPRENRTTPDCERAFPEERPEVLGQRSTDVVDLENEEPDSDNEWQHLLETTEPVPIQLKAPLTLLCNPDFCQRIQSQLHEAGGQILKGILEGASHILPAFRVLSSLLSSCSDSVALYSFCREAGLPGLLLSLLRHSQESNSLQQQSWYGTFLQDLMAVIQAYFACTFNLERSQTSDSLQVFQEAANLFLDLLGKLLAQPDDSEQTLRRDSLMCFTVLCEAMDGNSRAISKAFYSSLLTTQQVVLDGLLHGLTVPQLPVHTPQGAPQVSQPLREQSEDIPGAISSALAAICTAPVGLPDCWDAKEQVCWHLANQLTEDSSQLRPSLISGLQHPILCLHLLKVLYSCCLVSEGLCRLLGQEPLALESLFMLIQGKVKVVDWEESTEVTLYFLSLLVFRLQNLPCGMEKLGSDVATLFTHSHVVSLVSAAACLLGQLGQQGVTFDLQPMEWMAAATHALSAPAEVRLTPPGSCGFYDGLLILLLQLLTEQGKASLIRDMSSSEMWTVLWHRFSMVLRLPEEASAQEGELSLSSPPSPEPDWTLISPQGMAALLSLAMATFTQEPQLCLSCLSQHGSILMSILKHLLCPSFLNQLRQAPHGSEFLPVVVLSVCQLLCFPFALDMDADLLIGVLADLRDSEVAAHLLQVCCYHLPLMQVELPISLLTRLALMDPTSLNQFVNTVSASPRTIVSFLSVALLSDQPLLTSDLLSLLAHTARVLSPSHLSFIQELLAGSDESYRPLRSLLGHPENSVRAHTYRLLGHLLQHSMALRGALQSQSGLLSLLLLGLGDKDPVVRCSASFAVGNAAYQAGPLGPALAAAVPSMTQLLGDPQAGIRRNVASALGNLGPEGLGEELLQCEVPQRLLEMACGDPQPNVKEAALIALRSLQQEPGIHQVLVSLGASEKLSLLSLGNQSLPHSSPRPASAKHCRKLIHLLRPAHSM

[38] = target: Dual specificity testis-specific protein kinase 1 (Homo sapiens) (UniProt Q15569); details: Compound concentration 1000.0 nM
Chain of Dual specificity testis-specific protein kinase 1 (Homo sapiens) (Q15569 whole entry, looked up): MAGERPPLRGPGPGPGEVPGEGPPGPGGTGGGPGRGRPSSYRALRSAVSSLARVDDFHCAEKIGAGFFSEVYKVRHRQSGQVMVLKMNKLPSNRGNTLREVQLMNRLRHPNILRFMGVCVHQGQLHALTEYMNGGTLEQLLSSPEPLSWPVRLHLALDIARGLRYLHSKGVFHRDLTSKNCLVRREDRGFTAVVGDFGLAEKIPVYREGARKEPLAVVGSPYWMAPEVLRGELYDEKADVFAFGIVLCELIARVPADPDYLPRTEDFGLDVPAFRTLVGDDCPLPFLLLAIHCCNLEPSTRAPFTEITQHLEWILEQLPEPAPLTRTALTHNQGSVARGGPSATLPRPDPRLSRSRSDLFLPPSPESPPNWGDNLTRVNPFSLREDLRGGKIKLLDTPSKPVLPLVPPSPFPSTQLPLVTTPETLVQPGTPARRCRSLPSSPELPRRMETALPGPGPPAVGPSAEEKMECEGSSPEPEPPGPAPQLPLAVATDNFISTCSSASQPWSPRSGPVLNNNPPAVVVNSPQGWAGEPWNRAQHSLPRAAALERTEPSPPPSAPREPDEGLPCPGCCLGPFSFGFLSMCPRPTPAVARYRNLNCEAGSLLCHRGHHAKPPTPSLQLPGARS

[39] = target: Activated CDC42 kinase 1 (Homo sapiens) (UniProt Q07912); details: Compound concentration 1000.0 nM
[40] = target: High affinity nerve growth factor receptor (Homo sapiens) (UniProt P04629); details: Compound concentration 1000.0 nM
[41] = target: BDNF/NT-3 growth factors receptor (Homo sapiens) (UniProt Q16620); details: Compound concentration 1000.0 nM
[42] = target: 5-hydroxytryptamine receptor 3A (Homo sapiens) (UniProt P46098); details: Compound concentration 10.0 uM
[43] = target: Sodium-dependent dopamine transporter (Homo sapiens) (UniProt Q01959); details: Compound concentration 10.0 uM

SMILES: O=c1nc(-c2ccccn2)sc2ccccc12 [BTZO-1]
- MEC2.0 [1]: 820 nM
- residual activity [2]: 100%
- residual activity [3]: 82%
- residual activity [4]: 87%
- residual activity [5]: 100%
- residual activity [6]: 75%
- residual activity [7]: 71%
- residual activity [8]: 87%
- residual activity [9]: 100%
- residual activity [10]: 76%
- residual activity [11]: 70%
- residual activity [12]: 94%
- residual activity [13]: 100%
- residual activity [14]: 74%
- residual activity [15]: 84%
- residual activity [16]: 100%
- residual activity [17]: 97%
- residual activity [18]: 92%
- residual activity [19]: 100%
- residual activity [20]: 92%
- residual activity [21]: 92%
- residual activity [22]: 100%
- residual activity [23]: 100%
- residual activity [24]: 100%
- residual activity [25]: 72%
- residual activity [26]: 94%
- residual activity [27]: 86%
- residual activity [28]: 100%
- residual activity [29]: 100%
- residual activity [30]: 89%
- residual activity [31]: 97%
- residual activity [32]: 100%
- residual activity [33]: 100%
- residual activity [34]: 100%
- residual activity [35]: 94%
- residual activity [36]: 100%
- residual activity [37]: 82%
- residual activity [38]: 84%
- residual activity [39]: 100%
- residual activity [40]: 100%
- residual activity [41]: 96%
- inhibition [42]: 17.2%
- inhibition [43]: -3.83%

SMILES: O=C1NC(c2ccccn2)Sc2ccccc21 (configuration not stated) [BTZO-4]
- MEC1.5 [1]: > 1 µM
- MEC2.0 [1]: > 10000 nM
- residual activity [2]: 100%
- residual activity [3]: 73%
- residual activity [4]: 85%
- residual activity [5]: 84%
- residual activity [6]: 72%
- residual activity [7]: 65%
- residual activity [8]: 75%
- residual activity [9]: 100%
- residual activity [10]: 72%
- residual activity [11]: 82%
- residual activity [12]: 84%
- residual activity [13]: 100%
- residual activity [14]: 65%
- residual activity [15]: 70%
- residual activity [16]: 96%
- residual activity [17]: 88%
- residual activity [18]: 81%
- residual activity [19]: 100%
- residual activity [20]: 100%
- residual activity [21]: 73%
- residual activity [22]: 100%
- residual activity [23]: 100%
- residual activity [24]: 90%
- residual activity [25]: 80%
- residual activity [26]: 81%
- residual activity [27]: 84%
- residual activity [28]: 100%
- residual activity [29]: 100%
- residual activity [30]: 100%
- residual activity [31]: 88%
- residual activity [32]: 100%
- residual activity [33]: 86%
- residual activity [34]: 82%
- residual activity [35]: 95%
- residual activity [36]: 100%
- residual activity [37]: 79%
- residual activity [38]: 100%
- residual activity [39]: 100%
- residual activity [40]: 100%
- residual activity [41]: 87%
- inhibition [42]: -1.17%
- inhibition [43]: -2.05%
